One molecule from patent US20240389600A1 (The United States of America, as represented by the …, priority 2023, published 2024) can be followed below.

Data set [1] has as its system Georgia-06G peanut seeds. The following applies: 3% H2O2 replaced every 24 h, seed to liquid 1:8 w/v, 20° C., 72 h, Georgia-06G (2021 harvest).
Data set [2] relates to Georgia-06G peanut seeds. Particulars: 20° C.
Data set [3] deals with Georgia-06G peanut seeds. The experiment in a line: Static incubation of hydrated peanut seeds with H2O2; resveratrol content by HPLC. Particulars: for resveratrol content in seeds: 48 and 72-h incubation.

Read-outs that look alike come from different tables or passages of the source.

For the molecule `OO` [H2O2, hydrogen peroxide], the resveratrol concentration with Georgia-06G peanut seeds [1] came to 600 µg/g; in the data set on Georgia-06G peanut seeds [2] (3% H2O2 replaced every 24 h, seed to liquid 1:4 w/v, shaker, 72 h, Georgia-06G (2021 harvest)), 400 µg/g. Further, the resveratrol accumulation entry in the data set with Georgia-06G peanut seeds [2] (2% H2O2, in-shaker, after 72 h, Georgia-06G 2021) was “exceeding 300 μg/g of seed dry weight”. Also, the “concentration of resveratrol in seed extract chromatogram” value with Georgia-06G peanut seeds [2] (3 portions of 3% H2O2 (new charge every 24 h), shaker, 72 h, Georgia-06G 2021) is 334 μg/g of dry weight. Also, the “resveratrol content in seeds” value in the data set on Georgia-06G peanut seeds [3] (2% H2O2, 20° C., Georgia-06G (2021 harvest), FIG. 13) lay in the range of 100 to 200 µg/g; in the data set with Georgia-06G peanut seeds [3] (static, 20° C., Georgia-06G (2021 harvest), FIG. 11C) it was 50 to 100 µg/g. In the data set with Georgia-06G peanut seeds [3] (2% H2O2, 20° C., static, acidic conditions, Georgia-06G 2020 harvest), the “resveratrol production under moderate acidic conditions” value was “almost completely blocked resveratrol production”. Besides, the “levels of resveratrol in seeds” value in the data set on Georgia-06G peanut seeds [3] (3% H2O2, static, 15° C., after 72 and 96 h, Georgia-06G (2021 harvest)) lay within 20 to 50 µg/g. Besides, the “concentration of H2O2 that damages seeds (overall production of resveratrol drops, particularly after 72 h)” value with Georgia-06G peanut seeds [3] (static, 20° C., seeds to H2O2 1:6 w/v, Georgia-06G 2021) is “above 4%”.
